Results reported in patent US9751854B2 (Millennium Pharmaceuticals, Inc., priority 2014, dated 2017).

Biological target: human VPS34 (Homo sapiens (Human), UniProt Q8NEB9)
Experiment: Human VPS34 enzyme assay (Adapta TR-FRET ADP detection)
Assay type: biochemical
Parameters: Percent Inhibition: dose or concentration left out as unconfirmed
Details: for IC50: IC50 range class

human VPS34, sequence (Q8NEB9 whole entry): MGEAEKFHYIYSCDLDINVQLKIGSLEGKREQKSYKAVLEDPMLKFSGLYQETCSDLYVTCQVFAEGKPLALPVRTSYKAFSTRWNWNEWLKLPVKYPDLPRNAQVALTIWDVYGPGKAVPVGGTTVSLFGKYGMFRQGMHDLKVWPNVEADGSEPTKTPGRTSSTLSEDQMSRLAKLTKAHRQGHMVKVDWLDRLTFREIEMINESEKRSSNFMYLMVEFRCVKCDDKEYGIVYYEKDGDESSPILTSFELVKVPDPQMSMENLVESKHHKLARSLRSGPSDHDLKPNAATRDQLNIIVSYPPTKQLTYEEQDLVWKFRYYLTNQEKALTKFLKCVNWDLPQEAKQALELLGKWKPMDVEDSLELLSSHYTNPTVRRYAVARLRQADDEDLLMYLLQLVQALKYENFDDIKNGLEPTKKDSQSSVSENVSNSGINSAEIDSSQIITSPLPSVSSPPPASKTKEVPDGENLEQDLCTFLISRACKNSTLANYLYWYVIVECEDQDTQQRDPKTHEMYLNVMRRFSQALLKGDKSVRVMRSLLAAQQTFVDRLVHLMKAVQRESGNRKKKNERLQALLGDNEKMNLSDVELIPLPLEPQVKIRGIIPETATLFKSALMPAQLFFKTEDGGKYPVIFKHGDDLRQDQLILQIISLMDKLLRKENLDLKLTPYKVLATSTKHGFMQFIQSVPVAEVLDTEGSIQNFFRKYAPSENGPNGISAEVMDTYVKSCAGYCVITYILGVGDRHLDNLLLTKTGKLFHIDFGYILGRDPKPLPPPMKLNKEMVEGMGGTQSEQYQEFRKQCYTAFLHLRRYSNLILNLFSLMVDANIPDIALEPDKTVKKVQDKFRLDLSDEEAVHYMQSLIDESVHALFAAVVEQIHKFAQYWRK

IC50 [nM] | Percent Inhibition [%] | SMILES
10 to 50 |  | Cc1nccc(Nc2cc(-c3cnc(C)c(C(=O)N(C)C)c3)ccn2)n1 [Compound I-266, N,N,6-trimethyl-2′-[(2-methylpyrimidin-4-yl)amino]-3,4′-bipyridine-5-carboxamide]
10 to 50 |  | CC(=O)Nc1cc(-c2cncc(N3CCCN(C)S3(=O)=O)c2)ccn1 [Compound I-452, N-[5-(6-methyl-1,1-dioxido-1,2,6-thiadiazinan-2-yl)-3,4′-bipyridin-2′-yl]acetamide]
10 to 50 |  | Cc1nccc(Nc2cc(-c3cnc(C)c(OC4CCCC4)c3)ccn2)n1 [Compound I-471, 5-(cyclopentyloxy)-6-methyl-N-(2-methylpyrimidin-4-yl)-3,4′-bipyridin-2′-amine]
10 to 50 |  | CC(=O)Nc1cc(-c2cnc(C)c(N3CCCN(C)S3(=O)=O)c2)ccn1 [Compound I-343]
10 to 50 |  | CC(=O)Nc1cc(-c2cnc(C)c(NS(=O)(=O)CC(F)F)c2)ccn1 [Compound I-412, N-(5-{[(2,2-difluoroethyl)sulfonyl]amino}-6-methyl-3,4′-bipyridin-2′-yl)acetamide]
10 to 50 |  | CC(=O)Nc1cc(-c2cncc(N3CCCCS3(=O)=O)c2)ccn1 [Compound I-320, N-[5-(1,1-dioxido-1,2-thiazinan-2-yl)-3,4′-bipyridin-2′-yl]acetamide]
< 10 |  | CCN(C)S(=O)(=O)Nc1cc(-c2ccnc(NC(C)=O)c2)cnc1C [Compound I-273, N-(5-{[ethyl(methyl)sulfamoyl]amino}-6-methyl-3,4′-bipyridin-2′-yl)acetamide]
10 to 50 |  | CC(=O)Nc1cc(-c2cncc(S(=O)(=O)NC3CC3)c2)ccn1 [Compound I-338]
< 10 |  | Cc1nccc(Nc2cc(-c3c[n+]([O-])c(Cl)c(NS(=O)(=O)c4ccc(F)cc4F)c3C)ccn2)n1 [Compound I-454, N-(2-chloro-4-methyl-5-{2-[(2-methylpyrimidin-4-yl)amino)pyridin-4-yl}-1-oxidopyridin-3-yl)-2,4-difluorobenzenesulfonamide]
10 to 50 |  | Cc1nccc(Nc2cc(-c3cnc(C)c(N4CCCN(C)S4(=O)=O)c3)ccn2)n1 [Compound I-288, 6-methyl-5-(6-methyl-1,1-dioxido-1,2,6-thiadiazinan-2-yl)-N-(2-methylpyrimidin-4-yl)-3,4′-bipyridin-2′-amine]
10 to 50 |  | CC(=O)Nc1cc(-c2cnc(Cl)c(NS(=O)(=O)c3ccc(Cl)cc3Cl)c2C)ccn1 [Compound I-243, N-(6-chloro-5-{[(2,4-dichlorophenyl)sulfonyl]amino}-4-methyl-3,4′-bipyridin-2′-yl)acetamide]
10 to 50 |  | Cc1ccc(Oc2cc(-c3ccnc(Nc4ccnc(C)n4)c3)cnc2C)nc1 [Compound I-390, 6-methyl-5-[(5-methylpyridin-2-yl)oxy]-N-(2-methylpyrimidin-4-yl)-3,4′-bipyridin-2′-amine]
10 to 50 |  | COc1ncc(-c2ccnc(NC(C)=O)c2)cc1S(=O)(=O)NC12CC(C1)C2 [Compound I-470]
10 to 50 |  | CC(=O)Nc1cc(-c2cnc(Cl)c(NS(=O)(=O)c3c(Cl)cccc3Cl)c2C)ccn1 [Compound I-354, N-(6-chloro-5-{[(2,6-dichlorophenyl)sulfonyl]amino}-4-methyl-3,4′-bipyridin-2′-yl)acetamide]
10 to 50 |  | CC(=O)Nc1cc(-c2cncc(N(C)S(=O)(=O)N(C)C)c2)ccn1 [Compound I-458, N-{5-[(dimethylsulfamoyl)(methyl)amino]-3,4′-bipyridin-2′-yl}acetamide]
< 10 |  | CCOC(=O)Nc1cc(-c2cnc(C)c(NS(=O)(=O)c3ccc(F)cc3F)c2)ccn1 [Compound I-389, ethyl (5-{[(2,4-difluorophenyl)sulfonyl]amino}-6-methyl-3,4′-bipyridin-2′-yl)carbamate]
> 100 |  | CC(=O)Nc1cc(-c2cncc(Nc3ncco3)c2)ccn1 [Compound I-472, N-[5-(1,3-oxazol-2-ylamino)-3,4′-bipyridin-2′-yl]acetamide]
10 to 50 |  | Cc1c(-c2ccnc(Nc3ncc(C#N)cn3)c2)cnc(Cl)c1NS(=O)(=O)c1ccc(F)cc1F [Compound I-300, N-{6-chloro-2′-[(5-cyanopyrimidin-2-yl)amino]-4-methyl-3,4′-bipyridin-5-yl}-2,4-difluorobenzenesulfonamide]
10 to 50 |  | CC(=O)Nc1cc(-c2cnc(C)c(NS(=O)(=O)N3CCN(C)CC3)c2)ccn1 [Compound I-269, N-(6-methyl-5-{[(4-methylpiperazin-1-yl)sulfonyl]amino}-3,4′-bipyridin-2′-yl)acetamide]
> 100 |  | Cc1nccc(Nc2cc(-c3cnc(C)c(C(N)=O)c3)ccn2)n1 [Compound I-280, 6-methyl-2′-[(2-methylpyrimidin-4-yl)amino]-3,4′-bipyridine-5-carboxamide]
10 to 50 |  | CC(=O)Nc1cc(-c2cnc(C)c(OS(=O)(=O)N(C)C)c2)ccn1 [Compound I-359, 2′-acetamido-6-methyl-3,4′-bipyridin-5-yl dimethylsulfamate]
10 to 50 |  | CC(=O)Nc1cc(-c2cnc(N)c(N3CCCN(C)S3(=O)=O)c2)ccn1 [Compound I-323, N-[6-amino-5-(6-methyl-1,1-dioxido-1,2,6-thiadiazinan-2-yl)-3,4′-bipyridin-2′-yl]acetamide]
10 to 50 |  | COc1nccc(Nc2cc(-c3cncc(C(=O)N(C)C45CC(C4)C5)c3)ccn2)n1 [Compound I-245, N-(bicyclo[1.1.1]pent-1-yl)-2′-[(2-methoxypyrimidin-4-yl)amino]-N-methyl-3,4′-bipyridine-5-carboxamide]

Further lines, the compound ahead of its results:

SMILES | IC50 [nM] | Percent Inhibition [%]
CNc1ncc(-c2ccnc(NC(C)=O)c2)cc1C(=O)N(C)C [Compound I-22, 2′-acetamido-N,N-dimethyl-6-(methylamino)-3,4′-bipyridine-5-carboxamide] | 10 to 50 | 
CC(=O)Nc1cc(-c2cnc(C)c(N(C)S(=O)(=O)C3CC3)c2)ccn1 [Compound I-212, N-{5-[(cyclopropylsulfonyl)(methyl)amino]-6-methyl-3,4′-bipyridin-2′-yl}acetamide] | 50 to 100 | 
Cc1ncc(-c2ccnc(Nc3ccncn3)c2)cc1NS(=O)(=O)c1ccc(F)cc1F [Compound I-239, 2,4-difluoro-N-(6-methyl-2′-(pyrimidin-4-ylamino)-3,4′-bipyridin-5-yl]benzenesulfonamide] | < 10 | 
CNc1ncc(-c2ccnc(NC(C)=O)c2)cc1S(=O)(=O)Nc1ccc(F)cc1F [Compound I-63, N-{5-[(2,4-difluorophenyl)sulfamoyl]-6-(methylamino)-3,4′-bipyridin-2′-yl}acetamide] | < 10 | 
CC(=O)Nc1cc(-c2cnc(N(C)C)c(C(=O)Nc3ccc(F)cc3F)c2)ccn1 [Compound I-112, 2′-acetamido-N-(2,4-difluorophenyl)-6-(dimethylamino)-3,4′-bipyridine-5-carboxamide] | 50 to 100 | 
CC(=O)Nc1cc(-c2cnc(N)c(S(=O)(=O)N3CCCCC3)c2)ccn1 [Compound I-156, N-[6-amino-5-(piperidin-1-ylsulfonyl)-3,4′-bipyridin-2′-yl]acetamide] | < 10 | 
CC(=O)Nc1cc(-c2cnc(N)c(S(=O)(=O)Nc3cccnc3)c2)ccn1 [Compound I-204, N-[6-amino-5-(pyridin-3-ylsulfamoyl)-3,4′-bipyridin-2′-yl]acetamide] | < 10 | 
CC(=O)Nc1cc(-c2cncc(C(C)=O)c2)ccn1 [Compound I-194, N-(5-acetyl-3,4′-bipyridin-2′-yl)acetamide] | > 100 | 
COc1nccc(Nc2cc(-c3cnc(Cl)c(NS(=O)(=O)c4ccc(F)cc4F)c3C)ccn2)n1 [Compound I-225, N-{6-chloro-2′-[(2-methoxypyrimidin-4-yl)amino]-4-methyl-3,4′-bipyridin-5-yl}-2,4-difluorobenzenesulfonamide] | < 10 | 
CC(=O)Nc1cc(-c2cnc(N)c(N(C)S(C)(=O)=O)c2)ccn1 [Compound I-133, N-{6-amino-5-[methyl(methylsulfonyl)amino]-3,4′-bipyridin-2′-yl}acetamide] | < 10 | 
CC(=O)Nc1cc(-c2cnc3cn[nH]c3c2)ccn1 [Compound I-116, N-[4-(1H-pyrazolo[4,3-b]pyridin-6-yl)pyridin-2-yl]acetamide] | > 100 | 
CC(=O)Nc1cc(-c2cnc(C)c(NS(=O)(=O)c3cc(F)ccc3F)c2)ccn1 [Compound I-52] | < 10 | >99
CC(=O)Nc1cc(-c2cnc3c(c2)N(CC2CC2)S(=O)(=O)N3)ccn1 [Compound I-29, N-{4-[1-(cyclopropylmethyl)-2,2-dioxido-1,3-dihydro[1,2,5]thiadiazolo[3,4-b]pyridin-6-yl]pyridin-2-yl}acetamide] | 10 to 50 | 
CC(=O)Nc1cc(-c2cnc(N)c(S(=O)(=O)NC34CC(C3)C4)c2)ccn1 [Compound I-11, N-[6-amino-5-(bicyclo[1.1.1]pent-1-ylsulfamoyl)-3,4′-bipyridin-2′-yl]acetamide] | < 10 | 
Cc1nccc(Nc2cc(-c3cnc(C)c(C(=O)N4CC(F)(F)C4)c3)ccn2)n1 [Compound I-221, (3,3-difluoroazetidin-1-yl){6-methyl-2′-[(2-methylpyrimidin-4-yl)amino]-3,4′-bipyridin-5-yl]methanone] | 10 to 50 | 
CC(=O)Nc1cc(-c2cnc(C)c(NS(=O)(=O)c3cccnc3)c2)ccn1 [Compound I-45, N-{6-methyl-5-[(pyridin-3-ylsulfonyl)amino]-3,4′-bipyridin-2′-yl}acetamide] | < 10 | 
CC(=O)Nc1cc(-c2cnc(N)c(C(=O)NCC3CC3)c2)ccn1 [Compound I-14, 2′-acetamido-6-amino-N-(cyclopropylmethyl)-3,4′-bipyridine-5-carboxamide] | 10 to 50 | 
CC(=O)Nc1cc(-c2cncc(NC(=O)c3ccccc3)c2)ccn1 [Compound I-13, N-(2′-acetamido-3,4′-bipyridin-5-yl)benzamide] | > 100 | 
CC(=O)Nc1cc(-c2cncc(NS(=O)(=O)c3ccc(F)cc3F)c2C)ccn1 [Compound I-102, N-(5-{[(2,4-difluorophenyl)sulfonyl]amino]-4-methyl-3,4′-bipyridin-2′-yl)acetamide] | 10 to 50 | 
CC(=O)Nc1cc(-c2cncc(N)c2)ccn1 [Compound I-139, N-(5-amino-3,4′-bipyridin-2′-yl)acetamide] | > 100 | 
